Reference: BindingDB's records for doi:10.7270/Q2D798VP (Broad Institute, 2009)

Target: T1, Zinc finger protein mex-5 (Caenorhabditis elegans, UniProt Q9XUB2)
T1 sequence (Q9XUB2 whole entry): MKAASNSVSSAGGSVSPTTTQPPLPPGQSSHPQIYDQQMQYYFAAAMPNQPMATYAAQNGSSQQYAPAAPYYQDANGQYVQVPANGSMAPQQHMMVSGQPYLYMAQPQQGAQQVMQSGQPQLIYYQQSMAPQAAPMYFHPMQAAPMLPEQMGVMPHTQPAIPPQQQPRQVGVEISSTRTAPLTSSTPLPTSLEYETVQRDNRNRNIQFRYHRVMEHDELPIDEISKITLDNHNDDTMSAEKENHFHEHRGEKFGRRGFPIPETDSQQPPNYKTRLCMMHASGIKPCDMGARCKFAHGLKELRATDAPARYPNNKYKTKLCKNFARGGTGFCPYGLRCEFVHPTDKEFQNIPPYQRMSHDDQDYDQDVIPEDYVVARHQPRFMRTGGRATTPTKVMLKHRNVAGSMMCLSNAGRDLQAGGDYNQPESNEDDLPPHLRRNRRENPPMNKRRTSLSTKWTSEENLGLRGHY
Experiment: potency of MEX-5 RNA-binding blockers – biochemical, C. elegans, fluorescence polarization, dose response (AID 1960)

EC50 | SMILES
160 µM | CCOC(=O)c1c2ccc(OCC(=O)NN=Cc3ccc(Cl)cc3)cc2n2ccccc12 [3-[2-[2-[(4-chlorophenyl)methylidene]hydrazinyl]-2-oxoethoxy]-10-pyrido[1,2-a]indolecarboxylic acid ethyl ester]
15.7 µM | O=[N+]([O-])c1cc([CH+][N-]n2c(O)csc2=S)ccc1Cl [3-[(4-chloranyl-3-nitro-phenyl)methylideneamino]-2-sulfanylidene-1,3-thiazolidin-4-one]
0.668 µM | Oc1ccc(C=Nn2c(O)csc2=S)c(O)c1O [3-[[(E)-[2,3-bis(oxidanyl)-4-oxidanylidene-cyclohexa-2,5-dien-1-ylidene]methyl]amino]-2-sulfanylidene-1,3-thiazolidin-4-one]
11 µM | N#CC1C(=N)Oc2ccc3ccc(O)cc3c2C1c1ccsc1 (stereo not drawn) [3-amino-9-hydroxy-1-(3-thienyl)-1H-benzo[f]chromene-2-carbonitrile]
8.19 µM | COc1ccccc1N1C(=O)C(=Nc2ccccc2O)C(Cl)C1=O (stereo not drawn) [3-chloranyl-4-[(2-hydroxyphenyl)amino]-1-(2-methoxyphenyl)pyrrole-2,5-dione]
20.5 µM | O=C1C=C(NNC(=O)c2sc3ccccc3c2Cl)CCC1 [3-chloranyl-N-[(3-oxidanylidenecyclohexylidene)amino]-1-benzothiophene-2-carboxamide]
4.38 µM | CC(C)c1nnc(N2C(=O)C(=O)C(C(=O)c3cccs3)C2c2ccccc2)s1 (stereo not drawn) [3-hydroxy-1-(5-isopropyl-1,3,4-thiadiazol-2-yl)-5-phenyl-4-(2-thenoyl)-3-pyrrolin-2-one]
0.899 µM | O=C1CC(=O)c2c(O)cc(O)c(O)c2C1=O [4,5,7,8-tetrahydroxy-1,2-naphthoquinone]
> 300 µM | COc1cc(C2NC(=S)N=C(C)C2C(=O)OC(C)C)ccc1OC(C)C (stereo not drawn) [4-(3-methoxy-4-propan-2-yloxyphenyl)-6-methyl-2-sulfanylidene-3,4-dihydro-1H-pyrimidine-5-carboxylic acid propan-2-yl ester]
109 µM | O=C(O)c1ccc(NN=CC2=C(N3CCOCC3)C(=Cc3ccccc3)CC2)cc1 [4-[2-[[(3Z)-2-(4-morpholinyl)-3-(phenylmethylene)-1-cyclopentenyl]methylidene]hydrazinyl]benzoic acid]
43.4 µM | CC(=O)C1C(c2ccccc2)=NC(=O)NC1c1ccc(O)c(O)c1 (stereo not drawn) [4-[3,4-bis(oxidanyl)phenyl]-5-ethanoyl-6-phenyl-3,4-dihydro-1H-pyrimidin-2-one]
> 300 µM | Cc1ccc(-c2c(CCC(C)N=O)oc3ccc(Cl)cc23)o1 (stereo not drawn) [4-[5-chloro-3-(5-methyl-2-furanyl)-2-benzofuranyl]-2-butanone oxime]
3.38 µM | Cc1nnc(SC(=Cc2ccc(OCc3ccc(C(=O)O)cc3)cc2)C(=O)O)[nH]1 [4-[[4-[(E)-2-[(5-methyl-1H-1,2,4-triazol-3-yl)sulfanyl]-3-oxidanyl-3-oxidanylidene-prop-1-enyl]phenoxy]methyl]benzoic acid]
23.9 µM | COc1cc(S(=O)(=O)Nc2ccc(C)cc2)ccc1NC=C1C(=O)N(C)C(=O)C(C#N)=C1C [4-[[(Z)-(5-cyano-1,4-dimethyl-2,6-dioxopyridin-3-ylidene)methyl]amino]-3-methoxy-N-(4-methylphenyl)benzenesulfonamide]
111 µM | Cc1cc(CN=Nc2ccc([N+](=O)[O-])cn2)c(C)n1-c1ccc(C(=O)O)cc1 [4-{2,5-dimethyl-3-[2-(5-nitro-2-pyridinyl)carbonohydrazonoyl]-1H-pyrrol-1-yl}benzoic acid]
46.7 µM | Cc1sc2ncnc(N=NC(C)c3ccccn3)c2c1C (stereo not drawn) [5,6-dimethyl-N-(1-pyridin-2-ylethylideneamino)thieno[2,3-d]pyrimidin-4-amine]
12.8 µM | Fc1ccc(C2=Nc3ncnn3C(c3ccco3)C2)cc1 (stereo not drawn) [5-(4-fluorophenyl)-7-(2-furanyl)-1,7-dihydro-[1,2,4]triazolo[1,5-a]pyrimidine]

EC50 | SMILES
> 300 µM | c1ccc(C2=Nc3nnnn3C(c3cccs3)C2)cc1 (stereo not drawn) [5-Phenyl-7-thiophen-2-yl-4,7-dihydro-tetrazolo[1,5-a]pyrimidine]
31.1 µM | COc1cc(CN=Nc2[nH]c(=O)nnc2C)ccc1O [5-[2-[(E)-(3-methoxy-4-oxocyclohexa-2,5-dien-1-ylidene)methyl]hydrazinyl]-6-methyl-2H-1,2,4-triazin-3-one]
143 µM | Cc1cc(C=NNC(=O)c2cccc(N(C)C)c2)c(C)n1-c1cc(C(=O)O)cc(C(=O)O)c1 [5-[3-((E)-{[3-(dimethylamino)benzoyl]hydrazono}methyl)-2,5-dimethyl-1H-pyrrol-1-yl]isophthalic acid]
10.8 µM | COC1=CC(CN=Nc2[nH]c(=O)nnc2C)C=C([N+](=O)[O-])C1=O (stereo not drawn) [5-[[(E)-(3-methoxy-5-nitro-4-oxo-1-cyclohexa-2,5-dienylidene)methyl]hydrazo]-6-methyl-2H-1,2,4-triazin-3-one]
5.18 µM | O=C1N=c2ccc(Br)cc2=C1NNc1nnn[nH]1 [5-bromanyl-3-[2-(2H-1,2,3,4-tetrazol-5-yl)hydrazinyl]indol-2-one]
5.72 µM | Cc1ncc(C=O)c(CNNC(=O)c2cc(Br)ccc2O)c1O [5-bromanyl-N'-[(Z)-[5-(hydroxymethyl)-2-methyl-3-oxidanylidene-pyridin-4-ylidene]methyl]-2-oxidanyl-benzohydrazide]
26.9 µM | Cc1cccc(NNC2=c3cc(Br)ccc3=NC2=O)c1 [5-bromo-3-[2-(3-methylphenyl)hydrazinyl]indol-2-one]
256 µM | O=C(NN=Cc1c(O)ccc2ccccc12)c1cncc(Br)c1 [5-bromo-N'-[(Z)-(2-oxo-1-naphthalenylidene)methyl]-3-pyridinecarbohydrazide]
> 300 µM | Cc1ccc(N/N=C2/C(=O)Nc3ccc(F)cc32)cc1 [5-fluoro-3-[2-(4-methylphenyl)hydrazono]indolin-2-one]
8.49 µM | COc1cccc(C2C3CN(C)CCC3=C(C#N)C(=N)C2(C#N)C#N)c1OC (stereo not drawn) [6-Amino-8-(2,3-dimethoxy-phenyl)-2-methyl-2,3,8,8a-tetrahydro-1H-isoquinoline-5,7,7-tricarbonitrile]
25.5 µM | CCCN1CCC2=C(C#N)C(=N)C(C#N)(C#N)C(c3cc(OC)ccc3OC)C2C1 (stereo not drawn) [6-Amino-8-(2,5-dimethoxy-phenyl)-2-propyl-2,3,8,8a-tetrahydro-1H-isoquinoline-5,7,7-tricarbonitrile]
> 300 µM | N#CC1=C2CCOCC2C(c2cccnc2)C(C#N)(C#N)C1=N (stereo not drawn) [6-Amino-8-pyridin-3-yl-8,8a-dihydro-1H,3H-isochromene-5,7,7-tricarbonitrile]
> 300 µM | O=C(Cc1nc2cc([N+](=O)[O-])ccc2[nH]c1=O)c1ccccc1 [6-Nitro-3-(2-oxo-2-phenyl-ethylidene)-3,4-dihydro-1H-quinoxalin-2-one]
> 300 µM | CCOC(=O)C1=C(C)OC(=N)C(C#N)C1c1ccc(O)c(OC)c1 (stereo not drawn) [6-amino-5-cyano-4-(4-hydroxy-3-methoxyphenyl)-2-methyl-4H-pyran-3-carboxylic acid ethyl ester]
13.5 µM | CN1CCC2=C(C#N)C(=N)C(C#N)(C#N)C(c3cccc(Cl)c3Cl)C2C1 (stereo not drawn) [6-azanyl-8-[2,3-bis(chloranyl)phenyl]-2-methyl-1,3,8,8a-tetrahydroisoquinoline-5,7,7-tricarbonitrile]
13 µM | O=NC1CC2(CC(N=O)C1N=O)OCCO2 (stereo not drawn) [9-(hydroxyamino)-8-nitroso-1,4-dioxaspiro[4.5]dec-8-en-7-one oxime]
> 300 µM | Cc1ccc(N=CC2Sc3ccccc3NC2=O)cc1 (stereo not drawn) [(2E)-2-(p-toluidinomethylene)-4H-1,4-benzothiazin-3-one]

SMILES | EC50
Cc1[nH]n(C(N)=S)c(=O)c1N=Nc1cccc(C(=O)O)c1 [3-[(1-carbamothioyl-3-methyl-5-oxo-4H-pyrazol-4-yl)diazenyl]benzoic acid] | 22.7 µM
CCCCOc1c(Br)cc(CN=O)cc1OCC [3-bromo-4-butoxy-5-ethoxy-benzaldoxime] | > 300 µM
Cc1[nH]n(C(N)=S)c(=O)c1N=Nc1ccc(S(N)(=O)=O)cc1 [3-methyl-5-oxidanylidene-4-[(4-sulfamoylphenyl)diazenyl]-4H-pyrazole-1-carbothioamide] | 8.86 µM
COc1cc(C2C3=C(CCCC3=O)OC(=N)C2C#N)cc(OC)c1OC(=O)N1CCOCC1 (stereo not drawn) [4-(2-amino-3-cyano-5-oxo-5,6,7,8-tetrahydro-4H-chromen-4-yl)-2,6-dimethoxyphenyl morpholine-4-carboxylate] | > 300 µM
COc1cc(C2C3=C(CCCC3=O)OC(=N)C2C#N)ccc1OC(=O)N1CCOCC1 (stereo not drawn) [4-(2-amino-3-cyano-5-oxo-5,6,7,8-tetrahydro-4H-chromen-4-yl)-2-methoxyphenyl morpholine-4-carboxylate] | > 300 µM
N#CC1C(=N)OC2=C(C(=O)CCC2)C1c1ccc(OC(=O)N2CCOCC2)cc1 (stereo not drawn) [4-(2-amino-3-cyano-5-oxo-5,6,7,8-tetrahydro-4H-chromen-4-yl)phenyl morpholine-4-carboxylate] | > 300 µM
CC1(C)CC(=O)C2=C(C1)OC(=N)C(C#N)C2c1ccc(OC(=O)N2CCOCC2)cc1 (stereo not drawn) [4-morpholinecarboxylic acid [4-(2-amino-3-cyano-7,7-dimethyl-5-oxo-6,8-dihydro-4H-1-benzopyran-4-yl)phenyl] ester] | > 300 µM
NC(=NNC=c1ccc(=C2C=CC(=O)C(C(=O)O)=C2)o1)N[N+](=O)[O-] [5-(5-{2-[amino(nitroimino)methyl]carbonohydrazonoyl}-2-furyl)-2-hydroxybenzoic acid] | 26.1 µM
CN1CCC2=C(C#N)C(=N)C(C#N)(C#N)C(c3ccncc3)C2C1 (stereo not drawn) [6-amino-2-methyl-8-(4-pyridyl)-1,3,8,8a-tetrahydroisoquinoline-5,7,7-tricarbonitrile] | 7.73 µM
